What is called Kd is the equilibrium constant for the complex coming apart. The low end stands for higher affinity, the high end for lower affinity.

Assay [1] deals with HIS4-LacZ. More on the design: method as in PMID 16153175. The following applies: by GAAC via increased GCN4 translation in the presence of 3AT; cited from earlier work.
A further assay deals with sif285-1 GCN2 cells. Briefly: Growth on SD ±3AT media. In kind it is cell-based, yeast. Conditions: sif285-1 cells transformed with WT GCN2 plasmid. On the procedure: Strains used and generated in this work are derivatives of S288c and are described in Supplementary Table S1. Cell growth was performed at 30°C in standard yeast rich (YPD), synthetic defined minimal (SD) or synthetic complete (SC) media lacking nutrients for plasmid selection. All media have 2% glucose as a carbon source ([25]). 3-Amino-1,2,4-triazole (3AT) (Fluka) was added where indicated. For serial dilution growth assays, cells were grown to A600 = 0.6, diluted to 0.1 and 2–3 μl of 10-fold dilutions were spotted on the agar surface. Plasmid shuffling to select for loss of URA3 plasmids employed 5-fluoro-orotic acid (5-FOA; Sigma-Aldrich), while loss of LEU2 plasmids relied on passive loss during unselected growth and subsequent screening. Mating type switching employed HO plasmid pAV1621 (pHO1.5) followed by 5-FOA, sporulation, tetrad dissection and mating type testing ([25]). gcd6Δ sui3Δ double deletion strains (GP7216-19) were made by polymerase chain reaction (PCR) amplifying gcd6Δ::KanMX cassette from a BY4743 gcd6Δ::KanMX/GCD6 diploid strain (GP4146) and transforming the DNA fragment into sui3Δ gcn2Δ [SUI3-Flag TRP1] [GCD6 URA3] strains to generate G418 resistant cells unable to lose the covering GCD6 plasmid upon 5-FOA selection.

Assay [2] deals with HIS4-LacZ. Kind of assay: β-galactosidase assay of HIS4-LacZ fusion. In kind it is cell-based, yeast. Conditions: sif285-1 cells bearing GCD6, 3AT treatment. As to the method: Measurement of β-galactosidase levels from a HIS4-LacZ fusion genomically-integrated at ura3-52 was performed exactly as described ([36]) using whole protein extracts from cells grown in SC medium lacking histidine and uracil or following addition of 10 mM 3AT for 6 h. Units are nmole o-nitrophenyl-β-D-galacto-pyranoside cleaved/min/μg total protein ± SE, n = 3.

The next assay has as its target T1, eIF2 WT (Saccharomyces cerevisiae, UniProt P32481).
T1 construct: gene GCD11; purified apo-eIF2 heterotrimer; V5-SUI3 (N-terminal V5 tag on eIF2β), SUI2, His6-GCD11; nucleotide-free after EDTA dialysis
Kind of assay: Steady-state fluorescence titration of 100 nM BODIPY-FL nucleotide with increasing apo-eIF2 (490 nm excitation, 509 nm emission) in 30 mM HEPES, 100 mM KCl, 10 mM MgCl2, pH 7.4, at room temperature, fitted to a single-site binding model. On the procedure: (§1) To assay nucleotide affinity, fluorescence intensity of 100 nM of BODIPY-FL-GDP or BODIPY-FL-GTP (Thermo Fisher Scientific) in 180 μl of assay buffer (30 mM HEPES, 100 mM KCl, 10 mM MgCl2, pH 7.4) was measured using a Fluoromax-4 spectrophotometer (Horiba) (490 nm excitation, 509 nm emission). Yeast Met–tRNAi was assayed in a similar manner using 20 nM BOP-N-Met–tRNAi (tRNA probes) but with the addition of 1 mM GTP. Change in fluorescence intensity was measured upon addition of increasing amounts of apo–eIF2, incubating for 5 min at room temperature each time. Each measurement was blanked against a control without nucleotide to account for any affect of eIF2 and data were corrected for dilution effects caused by volume addition and normalized to starting values before being fitted to a single site binding model: y = 1 + [(ΔFmax - 1)*(x/(x + Kd))].
(§2) eIF2 was purified from yeast strains GP7145 and GP7146 expressing V5-sui3-E189K or the V5-SUI3 derivatives of eIF2β by sequential nickel affinity, HiTrap Heparin and HiTrap Q sepharose chromatography as described ([14]). To obtain apo–eIF2 free from nucleotide, eIF2 was dialysed with EDTA (30 mM HEPES, 100 mM KCl, 1 mM DTT, 1 mM EDTA, 10% glycerol, pH 7.4) then with magnesium (30 mM HEPES, 100 mM KCl, 1 mM DTT, 0.1 mM MgCl2, 10% glycerol, pH 7.4).
(§3) Figure 4. […] (A) Affinity (Kd) of GDP, GTP and Met–tRNAi to purified WT and mutant (β E189K) apo–eIF2 complexes measured by monitoring the fluorescence intensity of 100 nM BODIPY-FL-GDP (left), 100 nM BODIPY-FL-GTP (middle) or 20 nM BOP-N-Met–tRNAi with 1 mM GTP (right). […] K1/2 and Kmax values were determined from curve fitting y = [(Kmax × x)/(K1/2 + x)] + c. (C) Western blotting of IP of Flag-eIF2β, Flag-E189K and an untagged control from cells showing its co-association with known binding proteins. Quantification of at least three repeats using Li-Cor fluorescent secondary antibodies ±SE. […] Tif5 is indicated with an arrow, ‘♦’ marks a non-specific band.

For assay [3], the target named is T2, eIF2 (β E189K), eIF2βE189K (Saccharomyces cerevisiae, UniProt P09064+P32481, E189K).
T2 construct: purified apo-eIF2 heterotrimer; V5-sui3-E189K (N-terminal V5 tag on eIF2β), SUI2, His6-GCD11; nucleotide-free after EDTA dialysis
The assay is described as above. As to the method:
as §1, §2, §3

The nature of assay [4]: GDP dissociation assay, intrinsic BODIPY-GDP off-rate. The class given is binding. The following applies: 20 nM eIF2•BODIPY-GDP, 1 mM unlabelled GDP, 0 nM eIF2B. As to the method: (§4) Fluorescent eIF2•BODIPY-GDP binary complex was formed by incubating apo–eIF2 with a 2× excess of BODIPY-FL-GDP (Thermo Fisher Scientific) for 20 min at room temperature. Excess nucleotide was removed by passing through a G-50 sephadex column (GE Healthcare). Labelling efficiency was calculated to exceed 90%. […] K1/2 and Kmax values were determined from curve fitting y = [(Kmax × x)/(K1/2 + x)] + c.

The next assay concerns eIF5. Kind of assay: eIF5 GDI activity, BODIPY-GDP release with GST-eIF5. In kind it is biochemical, yeast. The following applies: eIF2•BODIPY-GDP 20 nM, purified eIF5 0–80 nM. As to the method: as §4
We therefore decided to assess eIF5 GDI activity directly. We monitored eIF5 GDI activity by incubating eIF2•BODIPY-GDP (20 nM) with purified eIF5 (0–80 nM) and recorded the fluorescence change upon dissociation of BODIPY-GDP from eIF2.

In the next assay the target is Met–tRNAi. Briefly: Steady state fluorescence, BOP-N-Met-tRNAi binding to apo-eIF2. More on the design: species or system Yeast. The following applies: 20 nM BOP-N-Met-tRNAi with 1 mM GTP, purified apo-eIF2. On the procedure: as §1
In assay [5] the target is eIF2^βE189K (V5-eIF2β-E189K, eIF2α, His6-eIF2γ), purified (S. cerevisiae) (UniProt P09064).
eIF2^βE189K (V5-eIF2β-E189K, eIF2α, His6-eIF2γ), purified (S. cerevisiae), sequence (P09064 whole entry E189K, chain 1 of 3): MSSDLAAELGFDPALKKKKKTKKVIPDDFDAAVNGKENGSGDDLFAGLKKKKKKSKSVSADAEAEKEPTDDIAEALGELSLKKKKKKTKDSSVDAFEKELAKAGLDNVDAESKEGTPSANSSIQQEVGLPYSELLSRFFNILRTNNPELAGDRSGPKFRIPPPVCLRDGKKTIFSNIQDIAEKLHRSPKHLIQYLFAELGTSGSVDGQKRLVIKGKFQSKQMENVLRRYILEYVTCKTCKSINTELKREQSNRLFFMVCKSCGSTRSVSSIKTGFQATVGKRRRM
eIF2^βE189K (V5-eIF2β-E189K, eIF2α, His6-eIF2γ), purified (S. cerevisiae), sequence (chain, as listed by the source E189K E189K, chain 2 of 3): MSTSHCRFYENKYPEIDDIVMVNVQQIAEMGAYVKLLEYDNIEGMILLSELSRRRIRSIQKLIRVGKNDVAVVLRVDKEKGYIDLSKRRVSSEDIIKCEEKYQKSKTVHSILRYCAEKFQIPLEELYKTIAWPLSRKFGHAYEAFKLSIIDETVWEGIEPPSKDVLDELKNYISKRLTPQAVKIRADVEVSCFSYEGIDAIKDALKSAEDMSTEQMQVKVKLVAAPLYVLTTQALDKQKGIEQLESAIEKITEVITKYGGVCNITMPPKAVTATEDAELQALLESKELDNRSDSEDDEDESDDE
eIF2^βE189K (V5-eIF2β-E189K, eIF2α, His6-eIF2γ), purified (S. cerevisiae), sequence (chain, as listed by the source E189K E189K, chain 3 of 3): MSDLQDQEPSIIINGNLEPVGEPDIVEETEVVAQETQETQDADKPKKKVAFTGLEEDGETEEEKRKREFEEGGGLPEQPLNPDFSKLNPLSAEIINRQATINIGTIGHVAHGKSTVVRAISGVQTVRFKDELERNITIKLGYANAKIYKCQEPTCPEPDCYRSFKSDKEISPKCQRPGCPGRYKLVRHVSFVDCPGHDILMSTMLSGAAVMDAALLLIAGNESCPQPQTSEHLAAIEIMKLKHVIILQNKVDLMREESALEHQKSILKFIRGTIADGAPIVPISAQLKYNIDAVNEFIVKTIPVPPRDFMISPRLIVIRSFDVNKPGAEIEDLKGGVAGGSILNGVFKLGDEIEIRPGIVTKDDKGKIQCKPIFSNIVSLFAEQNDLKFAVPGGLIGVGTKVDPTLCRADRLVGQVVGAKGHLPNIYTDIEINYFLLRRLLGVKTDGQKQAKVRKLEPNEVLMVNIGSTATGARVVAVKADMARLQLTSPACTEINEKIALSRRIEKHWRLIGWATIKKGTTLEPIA

T2 sequence (P09064 whole entry E189K): as the sequence (P09064 whole entry E189K, chain 1 of 3) above
T2 sequence (P32481 whole entry): as the sequence (chain, as listed by the source E189K E189K, chain 3 of 3) above
T2 sequence (P20459 whole entry, stated change not applied, further chain): as the sequence (chain, as listed by the source E189K E189K, chain 2 of 3) above
T1 sequence (P32481 whole entry): as the sequence (chain, as listed by the source E189K E189K, chain 3 of 3) above
T1 sequence (P20459 whole entry partner): as the sequence (chain, as listed by the source E189K E189K, chain 2 of 3) above
T1 sequence (P09064 whole entry partner): as the sequence (P09064 whole entry E189K, chain 1 of 3) above, with K189E counted along it
eIF5, sequence (P38431 whole entry): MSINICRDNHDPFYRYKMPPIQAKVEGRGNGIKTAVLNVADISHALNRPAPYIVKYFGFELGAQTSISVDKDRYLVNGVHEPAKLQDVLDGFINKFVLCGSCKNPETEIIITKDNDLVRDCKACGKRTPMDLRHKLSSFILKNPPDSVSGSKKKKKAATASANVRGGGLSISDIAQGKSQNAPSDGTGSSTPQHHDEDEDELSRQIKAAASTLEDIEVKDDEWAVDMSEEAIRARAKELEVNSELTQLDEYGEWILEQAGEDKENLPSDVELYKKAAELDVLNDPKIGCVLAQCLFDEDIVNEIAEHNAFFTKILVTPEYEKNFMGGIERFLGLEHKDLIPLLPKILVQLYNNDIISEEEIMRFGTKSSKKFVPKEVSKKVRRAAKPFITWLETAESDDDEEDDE
eIF5, sequence (P32481 whole entry, further chain): as the sequence (chain, as listed by the source E189K E189K, chain 3 of 3) above
eIF5, sequence (P20459 whole entry, further chain): as the sequence (chain, as listed by the source E189K E189K, chain 2 of 3) above

Turning to `Nc1nc[nH]n1` [3AT, 3-Amino-1,2,4-triazole], the HIS4 transcription derepression in the assay with HIS4-LacZ [1] is about 2 fold. For the same compound, the cell growth entry in the assay on sif285-1 GCN2 cells was “impaired”. In the assay on HIS4-LacZ [2], the HIS4-LacZ expression entry was “not derepressed”.
On to `Cc1cc(C)n2c1C=C1C=CC(CCC(=O)NCCNC(=O)OC3C(COP(=O)(O)OP(=O)(O)O)OC(n4cnc5c(=O)[nH]c(N)nc54)C3O)=[N+]1[B-]2(F)F` (centres unmarked) [BODIPY-FL-GDP, guanosine 5'-diphosphate, BODIPY FL 2'-(or-3')-O-(N-(2-aminoethyl)urethane)], for which the values for the Kd (on eIF2 WT; in assay [3]) were 19.1 nM and 19.3 nM, respectively.
Take `Cc1cc(C)n2c1C=C1C=CC(CCC(=O)NCCNC(=O)OC3C(COP(=O)(O)OP(=O)(O)OP(=O)(O)O)OC(n4cnc5c(=O)[nH]c(N)nc54)C3O)=[N+]1[B-]2(F)F` (centres unmarked) [BODIPY-FL-GTP, guanosine 5'-triphosphate, BODIPY FL 2'-(or-3')-O-(N-(2-aminoethyl)urethane)]: the figures for the equilibrium dissociation constant (Kd) (on eIF2 WT; in [3]) were 35.2 nM and 32 nM, respectively.
As to “eIF2 WT: Wild-type yeast translation initiation factor eIF2 complex purified from an overexpression yeast strain (V5-SUI3)”, the “Koff BODIPY-GDP” value in assay [4] amounted to 0.292 ± 0.025 min⁻¹. The “stabilization of GDP binding by eIF5 (GDI activity)” value in the assay with eIF5 is “stabilized by eIF5”. Further, binding on Met–tRNAi was characterised by a dissociation constant (Kd) of 2.8 nM.
In turn, “eIF2B, P14741 1-305; P32502 1-381; P09032 1-578; P12754 1-651; P32501 1-712” registered a K1/2 of eIF2B for GEF-promoted release of BODIPY-FL-GDP from purified eIF2•BODIPY-GDP (20 nM), room temperature in [5] of 92.6 nM.

Source of the values: publication PMC5175340, “eIF2β is critical for eIF5-mediated GDP-dissociation inhibitor activity and translational control” (Nucleic Acids Research, 2016).
